Experimental data reported in paper PMC8545107 (mBio, 2021).
No end group written: not given here.

Tests used:
[1] = biological target: gallocin gene promoter (PgllA) in S. gallolyticus subsp. gallolyticus UCN34 Δgsp pTCVΩPgllA-gfp (receptor BlpH); experiment: Gallocin induction reporter gene assay (PgllA-gfp); type: cell-based, Streptococcus gallolyticus subsp. gallolyticus; details: reporter strain UCN34 Δgsp pTCVΩPgllA-gfp; maximum GFP fluorescence normalized with OD600; 37°C; triplicate, three trials, sigmoidal curve fit
Source text: We first aimed at determining the active form of GSP in S. gallolyticus subsp. gallolyticus strain UCN34. GSP is derived from a 45-residue precursor encoded by gsp and is predicted to be processed to a 24-mer peptide by cleavage of the amino-terminal leader sequence after a double glycine motif and then exported to the extracellular environment by the BlpAB transporter. However, GSP was previously isolated as a 21-mer peptide from S. gallolyticus subsp. gallolyticus TX20005 ([10]). We first confirmed by mass spectrometry analysis that GSP isolated from culture supernatants of strain UCN34 was strictly identical to the 21-mer peptide previously purified from strain TX20005 (Fig. S1). […] Therefore, we chemically synthesized GSP 21-mer and GSP 24-mer peptides to test their efficiency in activating gallocin gene transcription. To do so, we used a reporter S. gallolyticus subsp. gallolyticus strain, UCN34, in which the endogenous gsp gene has been deleted and which contains a plasmid expressing gfp under the control of the gallocin gene promoter (PgllA) ([33]).
Fluorescence and absorbance measurements were recorded using a Biotek Synergy H1 microplate reader using Gen5 data analysis software (v. 3.03). Biological assays were performed in triplicate per trial. EC50s from three trials were calculated using GraphPad Prism software (v. 7.0) using a sigmoidal curve fit.
Stock solutions of peptides (1 mM) were prepared in dimethyl sulfoxide (DMSO) and stored at 4°C in sealed glass vials. […] Black polystyrene 96-well microtiter plates (Costar) were used for the GFP cell-based reporter assays.
Peptide stock solutions were serially diluted with DMSO in either 1:2, 1:3, or 1:5 dilutions, and 2 μl of the diluted solution was added to each of the wells in a black 96-well microtiter plate. Each concentration was tested in triplicate, with DMSO only used as a negative control. Screening of peptide analogs was conducted using the S. gallolyticus subsp. gallolyticus UCN34 Δgsp pTCVΩPgllA-gfp strain. An overnight culture was used to make a fresh 2-ml culture without EM using a 1:10 dilution on the day of the experiment and incubated in a CO2 incubator (37°C with 5% CO2) for 3 to 4 h to reach mid-log to late log phase of growth (OD600 = 0.6 to 0.9). A final 1:10 dilution was made on a larger scale (20 ml) without EM and used for the assay, where 198 μl diluted bacterial culture was added to each well of the microtiter plate containing peptides. Plates were incubated at 37°C with shaking at 200 rpm. Fluorescence (excitation, 485 nm; emission, 516 nm) and optical density at 600 nm (OD600) readings were recorded for each well using a plate reader. Measurements were taken 1 h after inoculation and were recorded every 20 to 30 min for up to 3 h to capture the maximum fluorescence signal. The maximum fluorescence signal was normalized with the OD600 value and used to construct dose curves to determine the EC50.

[2] = S. mutans ΔcomC washed cells in saline solution; details: S. mutans SMCC3 (ΔcomC), 37°C, up to 30 min
[3] = washed UCN34 Δgsp cells in sterile saline solution (0.9% [wt/vol] NaCl); details: S. gallolyticus subsp. gallolyticus UCN34 Δgsp, 37°C, up to 30 min
[4] = washed UCN34 ΔsepM cells in sterile saline solution (0.9% [wt/vol] NaCl); details: S. gallolyticus subsp. gallolyticus UCN34 ΔsepM, 37°C, up to 30 min

For LKKNHKPTKHA [GSP-des-D1-W10], the EC50 [1] was over 1000 nM.

DFLIVGPFDWLKKNHKPTAHA [GSP K19A] gave an EC50 [1] of 106 nM.

DFLIVGPFDALKKNHKPTKHA [GSP W10A] gave an EC50 [1] of over 1000 nM.

In the case of DFLIVGPFDWLKKNHKPTKHA, the cleaved bond [2] is reported as “L3-I4, 30 min” and the cleaved bond [3] is reported as “L3-I4, 30 min”.

Sequence DFLIVGPFDWLKKNHKPTK [GSP-des-H20-A21] has an EC50 [1] of over 1000 nM.

With KNKDFLIVGPFDWLKKNHKPTKHA the cleaved bond [4] was “L3-I4, 30 min”, the not cleaved [4] was “Degradation of KNK-GSP to GSP was not observed (30 min)” and the cleaved bond [3] was “L3-I4, 30 min”. The not cleaved [3] was “Degradation of KNK-GSP to GSP was not observed (30 min)”.

DFLIVGPFDWLKKNHKPTKH [GSP-des-A21] gave an EC50 [1] of over 1000 nM.

DFLIVGPFDWLKKNHKPT [GSP-des-K19-A21] gave an EC50 [1] of over 1000 nM.
